# In patent US20230321171A1, “ANTI-COCCIDIAL COMPOSITION COMPRISING MANGOSTEEN AND USES THEREOF” (CJ CHEILJEDANG CORPORATION, priority 2020, published 2023):
# How the values were obtained:
# Eimeria tenella [1] = experiment: In vivo anticoccidial efficacy evaluation in broilers challenge-inoculated with Eimeria tenella; set-up: species or system Ross broilers
# Experimental: An in vivo anticoccidial efficacy evaluation test was performed in an animal experiment facility in Gyeongsangnam-do, South Korea. One-day-old female Ross broilers were individually weighed and randomly divided into groups to use in an experiment. Matters and conditions for experimental design were described in Table 2.
# A breeding farm was managed according to the Korean poultry breeding management guidelines. Cages and the breeding farm were cleaned and disinfected before starting the test. The temperature of […] and the humidity of 40 to 50% of the breeding farm were maintained, and it was continuously monitored.
# For the feed, Korea Feed Al-choi product was used, and each material (salinomycin (Cheil Bio Cheilsalino-60 product), xanthone (Sigma Aldrich X600 product), and the mangosteen extract prepared in Example 1-2 above) was added to the feed, respectively, at a concentration described in Table 3 below to be self-mixed. Antibiotics and supplements were not used in general feed and mixed feed, and no anticoccidial agent other than each material was added. Broilers were fed ad libitum throughout the experiment period. After putting 20 1-day-age broilers in cages randomly placed for each of the control group or test group and breeding, general feed was fed for 7 days, and then the mixed feed prepared above was ingested by dividing by control group or test group.
# The feed formulation administered to the control group (negative control group or positive control group) and test group and whether coccidiosis was induced by Eimeria tenella were described in Table 3 below. 20 1-day-old broilers were put in a cage randomly arranged for each test group, and after 7 days of feeding the general feed, the formulated feed as described in Table 3 was divided into each test group and ingested.
# 14-day-old broilers were orally inoculated with 10,000 oocysts (90% sporulated Eimeria tenella oocysts) per individual to induce coccidiosis.
# The anticoccidial efficacy by test group designed in Example 1-3 above was shown as an anticoccidial index (ACI), and the anticoccidial index was calculated by Equation 2 below. The ACI score is out of 200 points, and the higher the ACI score, the more excellent the anticoccidial ability, and when it is 120 points or more to less than 140 points, it is determined that it is effective as an anticoccidial material, and when it is 140 points or more to less than 160 points, it is determined that it is excellent as an anticoccidial material, and when it is 160 points or more, it is determined that the anticoccidial effect is very excellent. (Luis Miguel De Pablos et al., Anticoccidial activity of maslinic acid against infection with Eimeria tenella in chickens, Parasitol Res, 2010)
# Anticoccidial index (ACI)=(survival rate after challenge inoculation (%))+(daily weight gain compared to negative control group (RWG, %))−(lesion score×10)−(fecal oocyst excretion amount index) (Equation 2)
# 1) Survival rate: the number of dead individuals was recorded daily, and post mortem autopsy was performed to determine a cause of mortality, and the number of individuals who died due to causes other than coccidiosis was excluded. The survival rate (%) up to the 8th day after challenge inoculation was used for anticoccidial index calculation.
# 2) Daily weight gain: body weight was measured for each cage before challenge inoculation with a protozoan into an individual and at the 7th day after challenge inoculation, and the difference was divided by the number of days to calculate the daily weight gain (ADG, g/d). ‘Daily weight gain compared to the negative control group (RWG, %)’which was calculated by dividing the daily weight gain (ADG, average daily gain; g/d) of each experimental group by the weight gain (ADG, g/d) of the non-infected negative control group and multiplying by 100 was used for anticoccidial index calculation. […]
# Eimeria tenella [2] = experiment: Protozoan (sporozoite) direct killing ability, Eimeria tenella; format: cell-based; conditions: for Eimeria tenella protozoal death rate (%): compared to PBS-treated negative control group
# Experimental: (§1) In the present example, protozoan (sporozoite) direct killing ability evaluation was conducted against 3 representative Eimeria kinds known to be infected in most farms (E. tenella, E. acervulina, E. maxima).
# (§2) A certain amount of oocysts of each protozoan was put in a tube containing glass beads and pulverized, and then to remove the crushed oocyst cell wall and other debris, internal sporocysts were purified using the percoll density gradient, and washed with PBS solution. A reagent comprising sodium taurocholic acid (Sigma aldrich, USA) and trypsin (Gibco, USA), respectively, was treated to sporocysts of Eimeria tenella, Eimeria acervulina and Eimeria maxima for excystation and they were incubated, and then they were washed with PBS solution once and protozoa were obtained.
# (§3) After reacting the mangosteen pericarp extract, epicatechin, alpha-mangostin, xanthone and anticoccidial agents, salinomycin and diclazuril (hereinafter, material) with 3 kinds of Eimeria protozoa at various concentrations of 1 to 500 ppm, respectively, only alive protozoa (sporozoites) were counted through microscopic observation. Then, the death rate (%) of the protozoa when each material was treated compared to the PBS-treated negative control group was calculated and shown in Table 8 to Table 10 and Table 12, respectively, and the minimum concentration which directly killed the protozoa by 100% was shown in Table 11 below.
# Eimeria maxima = experiment: Protozoan (sporozoite) direct killing ability, Eimeria maxima; format: cell-based; conditions: for Eimeria maxima protozoal death rate (%): compared to PBS-treated negative control group
# Experimental: as §1, §2, §3
# [3] = tested on: RAW264.7(Mouse macrophage cell); experiment: Cytotoxicity, MTS analysis, RAW264.7; conditions: 3.1~500 ppm/well, 14 hours + 2 hours MTS, vs 5% DMSO treatment group
# Text: In the present example, using MTS analysis method (3-(4,5-[…])-5-(3-carboxymethoxyphenyl)-2-(4-sulfophenyl)-2H-tetrazolium, promega, USA), an effect on survival of cells of the mangosteen extract was investigated.
# The cell lines utilized in cytotoxicity evaluation were (1) MDBK(Madin-Darby Bovine Kidney Epithelial Cells) and (2) RAW264.7(Mouse macrophage cell), and all of them were purchased from ATCC and used.
# Each cell was aliquoted at a concentration of 1×10^5 cell/well in a 96-well cell culture plate, and cultured at 37° C. for 24 hours, and then each material (mangosteen extract, xanthone, alpha-mangostin and epicatechin) was treated by concentration (3.1˜500 ppm/well) and cultured at a temperature of 37° C.
smiles,measurement,setting,value
"O=c1c2ccccc2oc2ccccc12 [Xanthone, xanthone]","Intermediate body weight (14-day-old, before challenge inoculation)","Eimeria tenella [1]; formulated feed 62.5 ppm from day 7, female Ross broilers",470.9
same,Appendix lesion score,"Eimeria tenella [1]; formulated feed 62.5 ppm, 8th day after challenge inoculation, scale of 0-4",2.4
same,"End body weight (21-day-old, on the 7th day of challenge inoculation)","Eimeria tenella [1]; formulated feed 62.5 ppm, 10,000 E. tenella oocysts oral at 14 days",887.0
same,Day 14~Day 21 ADG (daily weight gain),"Eimeria tenella [1]; formulated feed 62.5 ppm, E. tenella infected broilers",56.42 g/day
same,Anticoccidial index (ACI),"Eimeria tenella [1]; formulated feed 62.5 ppm, Equation 2, out of 200 points",122
same,Oocyst excretion amount/gram,"Eimeria tenella [1]; formulated feed 62.5 ppm, feces of 6~8th day of challenge inoculation, McMaster chamber",1.80E+08 /gram
same,RWG (daily weight gain compared to the negative control group),"Eimeria tenella [1]; formulated feed 62.5 ppm, relative to non-infected negative control group",85%
same,Eimeria tenella protozoal death rate (%),Eimeria tenella [2]; 1 ppm,0%
same,Eimeria tenella protozoal death rate (%),Eimeria tenella [2]; 5 ppm,0%
same,Eimeria tenella protozoal death rate (%),Eimeria tenella [2]; 10 ppm,0%
same,Eimeria tenella protozoal death rate (%),Eimeria tenella [2]; 50 ppm,0%
same,Eimeria tenella protozoal death rate (%),Eimeria tenella [2]; 100 ppm,0%
same,Eimeria tenella protozoal death rate (%),Eimeria tenella [2]; 125 ppm,10%
same,Eimeria tenella protozoal death rate (%),Eimeria tenella [2]; 250 ppm,0%
same,Eimeria tenella protozoal death rate (%),Eimeria tenella [2]; 500 ppm,15%
same,Minimum concentrataion of killing protozoa 100% (ppm),"Eimeria tenella [2]; Eimeria tenella, Table 15, method similar to Example 2-1",≥500 ppm
same,"Minimum concentration for killing 100% protozoa (ppm), Eimeria tenella",Eimeria tenella [2]; tested 1 to 500 ppm,>500 ppm
same,Eimeria maxima protozoal death rate (%),Eimeria maxima; 1 ppm,0%
same,Eimeria maxima protozoal death rate (%),Eimeria maxima; 5 ppm,0%
same,Eimeria maxima protozoal death rate (%),Eimeria maxima; 10 ppm,0%
same,Eimeria maxima protozoal death rate (%),Eimeria maxima; 50 ppm,0%
same,Eimeria maxima protozoal death rate (%),Eimeria maxima; 100 ppm,0%
same,Eimeria maxima protozoal death rate (%),Eimeria maxima; 125 ppm,0%
same,Eimeria maxima protozoal death rate (%),Eimeria maxima; 250 ppm,5%
same,Eimeria maxima protozoal death rate (%),Eimeria maxima; 500 ppm,12%
same,"Minimum concentration for killing 100% protozoa (ppm), Eimeria maxima",Eimeria maxima; tested 1 to 500 ppm,>500 ppm
same,Minimum concentrataion of cytotoxicity at which cells of 50% or more survive (ppm),[3],≥62.5 ppm
